Source: US6426197B1, “Polynucleotides encoding a human potassium channel” (SmithKline Beecham, P.L.C., priority 1998, dated 2002)

Target: T1, h-TRAAK (Homo sapiens, UniProt Q9NYG8)
T1 construct: expressed in transfected cells; host or cells: HEK 293
T1 sequence (Q9NYG8 1-393): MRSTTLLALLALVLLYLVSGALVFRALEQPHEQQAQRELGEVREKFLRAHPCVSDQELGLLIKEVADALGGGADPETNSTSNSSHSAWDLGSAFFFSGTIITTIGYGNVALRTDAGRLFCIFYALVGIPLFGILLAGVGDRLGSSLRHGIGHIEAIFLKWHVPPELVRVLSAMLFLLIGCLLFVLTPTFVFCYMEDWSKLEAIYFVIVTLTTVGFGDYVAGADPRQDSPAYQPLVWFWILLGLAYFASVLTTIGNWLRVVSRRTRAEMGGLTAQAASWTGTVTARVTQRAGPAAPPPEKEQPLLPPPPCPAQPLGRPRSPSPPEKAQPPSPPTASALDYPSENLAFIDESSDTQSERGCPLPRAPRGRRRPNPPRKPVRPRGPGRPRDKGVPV
Assay: Whole cell patch clamp recordings in HEK 293 cells transiently transfected with h-TRAAK
Assay type: cell-based
From the text: Electrophysiological Recordings in HEK293 Cells
For whole cell patch clamp recordings cells were placed on the stage of an inverted microscope and continuously superfused with a solution containing, in mM: NaCl 150, KCl 5, HEPES 10, CaCl2 1 and MgCl2 3; pH with NaOH. The patch pipette solution contained in mM: KCl 150, HEPES 10, MgCl2 3 and EGTA 5; pH7.2 with KOH. When cells were voltage clamped at a test potential of −80 mV depolarising pulses elicited rapidly activating, non-inactivating outward currents. At a test potential of +10 mV these currents were considerably greater in amplitude, 300.4 pA±92.9 (n=5) than those recorded from untransfected wild type HEK 293 cells, 94.8 pA +12.6 (n=15). h-TRAAK-mediated currents were potentiated by arachidonic acid over a voltage range from −140 to +60 mV.

CCCCC/C=C\C/C=C\C/C=C\C/C=C\CCCC(=O)O [arachidonic acid]
fold increase in h-TRAAK-mediated current (10 μM arachidonic acid, test potential of +10 mV): 7.9 ±3.0 fold
effect on h-TRAAK-mediated currents (voltage range from −140 to +60 mV): potentiated
